Values belong to the compound of their own block, whether it stands above or below them. Activity calls are given as the source filed them.
Columns and labels:
Format in all cases: functional
[1] = target: Platelet-derived growth factor receptor alpha (Homo sapiens, UniProt P16234); assay: Navigating the Kinome. Panel member name: PDGFRA
[2] = target: Cyclin-dependent kinase 7 (Homo sapiens, UniProt P50613);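 further: value comes from a kinome-wide kinase profiling panel in which CDK7 is one member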
Sequence of Cyclin-dependent kinase 7 (P50613 whole entry): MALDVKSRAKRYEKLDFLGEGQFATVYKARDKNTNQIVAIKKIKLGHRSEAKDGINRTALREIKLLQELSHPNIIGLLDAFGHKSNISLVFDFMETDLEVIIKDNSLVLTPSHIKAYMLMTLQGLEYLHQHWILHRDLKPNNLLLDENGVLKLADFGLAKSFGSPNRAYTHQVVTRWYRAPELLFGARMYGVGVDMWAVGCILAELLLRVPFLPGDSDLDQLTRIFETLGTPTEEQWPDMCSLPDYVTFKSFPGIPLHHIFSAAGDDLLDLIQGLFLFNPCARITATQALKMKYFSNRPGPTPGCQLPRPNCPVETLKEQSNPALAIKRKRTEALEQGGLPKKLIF

[3] = target: Serine/threonine-protein kinase TBK1 (Homo sapiens, UniProt Q9UHD2); assay: Navigating the Kinome. Panel member name: TBK1
[4] = target: Leucine-rich repeat serine/threonine-protein kinase 2 (Homo sapiens, UniProt Q5S007);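 further: value from a broad kinome-wide panel profiling study in which LRRK2 was one of the kinases tested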
Sequence of Leucine-rich repeat serine/threonine-protein kinase 2 (Q5S007 whole entry): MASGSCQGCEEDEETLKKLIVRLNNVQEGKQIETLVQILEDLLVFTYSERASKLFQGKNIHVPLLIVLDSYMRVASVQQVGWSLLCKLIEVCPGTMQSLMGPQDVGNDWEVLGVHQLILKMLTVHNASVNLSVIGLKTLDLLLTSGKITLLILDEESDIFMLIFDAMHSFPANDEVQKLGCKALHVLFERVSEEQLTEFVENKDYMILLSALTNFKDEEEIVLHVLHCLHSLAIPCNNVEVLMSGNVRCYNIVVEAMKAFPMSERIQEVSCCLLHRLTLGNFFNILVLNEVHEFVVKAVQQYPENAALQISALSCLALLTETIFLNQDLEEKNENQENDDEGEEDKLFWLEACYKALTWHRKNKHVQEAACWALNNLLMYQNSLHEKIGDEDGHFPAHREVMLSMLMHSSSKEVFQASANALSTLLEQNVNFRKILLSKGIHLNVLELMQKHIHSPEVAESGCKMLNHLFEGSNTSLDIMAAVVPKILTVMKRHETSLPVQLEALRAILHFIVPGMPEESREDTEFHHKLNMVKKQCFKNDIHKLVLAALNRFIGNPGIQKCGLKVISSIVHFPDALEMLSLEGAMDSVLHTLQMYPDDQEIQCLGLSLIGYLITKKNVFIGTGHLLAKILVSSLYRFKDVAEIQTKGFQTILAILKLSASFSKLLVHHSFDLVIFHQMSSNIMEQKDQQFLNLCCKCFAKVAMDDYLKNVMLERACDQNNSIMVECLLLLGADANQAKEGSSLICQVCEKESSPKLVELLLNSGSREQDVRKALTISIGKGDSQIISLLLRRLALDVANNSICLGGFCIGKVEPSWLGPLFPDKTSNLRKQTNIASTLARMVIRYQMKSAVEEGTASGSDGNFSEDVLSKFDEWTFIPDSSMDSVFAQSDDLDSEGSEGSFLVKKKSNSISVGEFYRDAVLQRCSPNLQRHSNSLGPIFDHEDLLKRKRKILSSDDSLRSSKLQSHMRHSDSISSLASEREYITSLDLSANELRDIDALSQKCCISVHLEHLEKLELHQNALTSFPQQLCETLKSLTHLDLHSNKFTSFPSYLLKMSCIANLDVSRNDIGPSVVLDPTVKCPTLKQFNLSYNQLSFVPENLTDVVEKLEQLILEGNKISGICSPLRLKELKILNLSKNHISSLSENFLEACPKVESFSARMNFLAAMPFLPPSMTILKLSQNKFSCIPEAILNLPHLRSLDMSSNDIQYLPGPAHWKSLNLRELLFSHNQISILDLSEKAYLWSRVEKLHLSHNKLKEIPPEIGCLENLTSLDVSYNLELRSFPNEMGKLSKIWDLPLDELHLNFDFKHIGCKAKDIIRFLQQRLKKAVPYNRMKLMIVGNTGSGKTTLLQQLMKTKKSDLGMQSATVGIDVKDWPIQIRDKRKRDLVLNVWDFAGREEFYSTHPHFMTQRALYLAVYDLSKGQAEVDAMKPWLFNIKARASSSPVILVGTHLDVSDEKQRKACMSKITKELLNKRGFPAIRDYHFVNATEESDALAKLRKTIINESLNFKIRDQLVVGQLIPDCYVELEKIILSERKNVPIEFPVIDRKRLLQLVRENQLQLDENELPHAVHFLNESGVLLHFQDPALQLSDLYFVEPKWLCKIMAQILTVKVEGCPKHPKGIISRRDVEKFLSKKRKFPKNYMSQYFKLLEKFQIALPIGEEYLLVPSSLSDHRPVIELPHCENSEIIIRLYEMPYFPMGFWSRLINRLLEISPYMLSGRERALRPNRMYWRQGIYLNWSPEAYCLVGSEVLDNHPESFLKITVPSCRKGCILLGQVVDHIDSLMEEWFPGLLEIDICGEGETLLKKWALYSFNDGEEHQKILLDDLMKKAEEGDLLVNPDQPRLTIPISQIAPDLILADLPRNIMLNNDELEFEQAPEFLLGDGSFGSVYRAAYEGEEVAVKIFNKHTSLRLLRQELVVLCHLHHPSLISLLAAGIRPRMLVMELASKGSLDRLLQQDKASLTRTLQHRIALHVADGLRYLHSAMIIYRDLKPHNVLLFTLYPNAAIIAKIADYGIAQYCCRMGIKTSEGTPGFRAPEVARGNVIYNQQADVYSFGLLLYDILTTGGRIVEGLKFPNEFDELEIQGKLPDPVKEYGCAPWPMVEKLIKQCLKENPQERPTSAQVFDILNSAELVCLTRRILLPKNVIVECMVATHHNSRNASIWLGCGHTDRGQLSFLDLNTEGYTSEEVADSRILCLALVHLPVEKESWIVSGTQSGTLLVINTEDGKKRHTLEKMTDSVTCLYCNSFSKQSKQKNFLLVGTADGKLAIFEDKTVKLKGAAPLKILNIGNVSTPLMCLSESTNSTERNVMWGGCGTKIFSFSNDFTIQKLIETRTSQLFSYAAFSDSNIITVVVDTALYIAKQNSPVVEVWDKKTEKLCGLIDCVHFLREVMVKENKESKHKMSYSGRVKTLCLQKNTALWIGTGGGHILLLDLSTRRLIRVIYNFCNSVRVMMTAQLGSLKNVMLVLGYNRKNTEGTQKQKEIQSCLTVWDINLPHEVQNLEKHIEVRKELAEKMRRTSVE

[5] = target: Serine/threonine-protein kinase pim-1 (Homo sapiens, UniProt P11309)
Sequence of Serine/threonine-protein kinase pim-1 (P11309 whole entry): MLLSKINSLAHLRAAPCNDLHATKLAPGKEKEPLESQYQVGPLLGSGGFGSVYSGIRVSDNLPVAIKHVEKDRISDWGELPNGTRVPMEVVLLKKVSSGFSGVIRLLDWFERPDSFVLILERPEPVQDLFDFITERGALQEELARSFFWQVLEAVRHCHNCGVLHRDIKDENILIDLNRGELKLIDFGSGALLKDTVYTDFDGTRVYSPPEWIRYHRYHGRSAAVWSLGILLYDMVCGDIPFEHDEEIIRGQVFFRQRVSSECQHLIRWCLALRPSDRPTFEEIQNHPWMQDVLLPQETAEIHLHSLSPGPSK

[6] = target: Leukocyte tyrosine kinase receptor (Homo sapiens, UniProt P29376); assay: Navigating the Kinome. Panel member name: LTK
[7] = target: Serine/threonine-protein kinase pim-3 (Homo sapiens, UniProt Q86V86);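 further: value obtained as one member of a broad kinase panel profiling effort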
[8] = target: Cyclin-dependent kinase 8 (Homo sapiens, UniProt P49336); assay: Navigating the Kinome. Panel member name: CDK8
Sequence of Cyclin-dependent kinase 8 (P49336 whole entry): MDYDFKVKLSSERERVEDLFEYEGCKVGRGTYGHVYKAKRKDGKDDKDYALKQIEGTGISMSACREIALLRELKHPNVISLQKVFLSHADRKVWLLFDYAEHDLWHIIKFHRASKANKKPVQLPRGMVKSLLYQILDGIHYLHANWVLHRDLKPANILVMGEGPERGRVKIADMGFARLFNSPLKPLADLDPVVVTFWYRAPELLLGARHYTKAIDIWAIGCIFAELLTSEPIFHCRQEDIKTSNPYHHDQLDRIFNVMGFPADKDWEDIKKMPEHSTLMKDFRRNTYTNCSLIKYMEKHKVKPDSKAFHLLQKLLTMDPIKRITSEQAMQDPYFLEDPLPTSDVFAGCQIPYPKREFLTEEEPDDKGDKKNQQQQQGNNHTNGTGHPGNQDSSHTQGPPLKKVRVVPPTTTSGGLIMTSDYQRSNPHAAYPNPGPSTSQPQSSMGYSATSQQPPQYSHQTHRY

[9] = target: Dual specificity protein kinase CLK4 (Homo sapiens, UniProt Q9HAZ1)
Sequence of Dual specificity protein kinase CLK4 (Q9HAZ1 whole entry): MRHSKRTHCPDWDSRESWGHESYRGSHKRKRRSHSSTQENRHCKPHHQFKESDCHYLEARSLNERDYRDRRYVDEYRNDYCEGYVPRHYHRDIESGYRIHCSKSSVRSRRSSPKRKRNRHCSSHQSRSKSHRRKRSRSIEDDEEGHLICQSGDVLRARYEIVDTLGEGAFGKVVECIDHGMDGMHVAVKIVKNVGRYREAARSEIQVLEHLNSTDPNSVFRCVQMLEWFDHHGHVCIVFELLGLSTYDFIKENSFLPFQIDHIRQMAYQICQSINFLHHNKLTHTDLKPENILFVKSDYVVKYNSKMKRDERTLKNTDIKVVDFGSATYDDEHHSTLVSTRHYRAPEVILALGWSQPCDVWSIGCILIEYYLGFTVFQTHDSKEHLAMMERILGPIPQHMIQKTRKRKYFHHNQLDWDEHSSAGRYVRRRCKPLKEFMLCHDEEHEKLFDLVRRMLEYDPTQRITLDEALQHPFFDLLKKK

Activin receptor type-1 = Activin receptor type-1 (Homo sapiens, UniProt Q04771); assay: Navigating the Kinome. Panel member name: ACVR1
Sequence of Activin receptor type-1 (Q04771 whole entry): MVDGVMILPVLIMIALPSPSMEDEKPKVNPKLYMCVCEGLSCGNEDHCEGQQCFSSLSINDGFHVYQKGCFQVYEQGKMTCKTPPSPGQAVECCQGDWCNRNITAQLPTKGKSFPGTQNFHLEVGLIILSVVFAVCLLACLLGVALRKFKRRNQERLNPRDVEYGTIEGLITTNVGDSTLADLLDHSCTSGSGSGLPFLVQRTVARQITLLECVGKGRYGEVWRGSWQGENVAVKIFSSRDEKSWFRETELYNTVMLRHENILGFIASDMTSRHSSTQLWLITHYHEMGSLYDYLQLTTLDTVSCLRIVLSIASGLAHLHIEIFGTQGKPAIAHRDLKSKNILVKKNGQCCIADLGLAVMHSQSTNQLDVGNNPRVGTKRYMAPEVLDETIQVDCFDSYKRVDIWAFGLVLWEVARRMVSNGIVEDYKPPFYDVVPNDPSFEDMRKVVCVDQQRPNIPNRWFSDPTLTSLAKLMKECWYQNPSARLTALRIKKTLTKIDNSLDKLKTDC

[10] = target: Vascular endothelial growth factor receptor 3 (Homo sapiens, UniProt P35916);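 further: value from a kinome-wide profiling panel, with FLT4 as the panel member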
[11] = target: Ribosomal protein S6 kinase alpha-5 (Homo sapiens, UniProt O75582)
[12] = target: Cyclin-dependent kinase 1 (Homo sapiens, UniProt P06493);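 further: Kinome-wide panel profiling, with the target listed as panel member CDC2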
[13] = target: Rho-associated protein kinase 2 (Homo sapiens, UniProt O75116)
[14] = target: Inhibitor of nuclear factor kappa-B kinase subunit alpha (Homo sapiens, UniProt O15111)
[15] = target: Tyrosine-protein kinase Lck (Homo sapiens, UniProt P06239);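 further: lck was assayed as one member of a kinase panel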
[16] = target: Tyrosine-protein kinase receptor UFO (Homo sapiens, UniProt P30530)
[17] = target: Cyclin-dependent kinase 19 (Homo sapiens, UniProt Q9BWU1); assay: Navigating the Kinome. Panel member name: CDC2L6
[18] = target: Calcium/calmodulin-dependent protein kinase type II subunit beta (Homo sapiens, UniProt Q13554)

Ki [1]: > 2510 nM (inactive)
Ki [2]: 158 nM (active)
pKi [2]: 6.8
Ki [3]: > 3160 nM (inactive)
Ki [4]: 316 nM (active)
pKi [4]: 6.5
Ki [5]: 1580 nM (active)
pKi [5]: 5.8
Ki [6]: > 2510 nM (inactive)
Ki [7]: 398 nM (active)
pKi [7]: 6.4
Ki [8]: 15.8 nM (active)
pKi [8]: 7.8
Ki [9]: 0.631 nM (active)
pKi [9]: 9.2
Ki (Activin receptor type-1): 2000 nM (active)
pKi (Activin receptor type-1): 5.7
SMILES: NC(=O)c1cc(-c2ccnc(N)n2)[nH]c1-c1ccc(Cl)cc1Cl

Ki [10]: 25.1 nM (active)
Ki [11]: 25.1 nM (active)
Ki [12]: 251 nM (active)
Ki [13]: 12.6 nM (active)
Ki [14]: 398 nM (active)
Ki [15]: 398 nM (active)
Ki [16]: 10 nM (active)
Ki [17]: > 100000 nM (inactive)
Ki [18]: 251 nM (active)
SMILES: NC(COc1cncc(-c2ccc3c(c2)C(=Cc2ccco2)C(=O)N3)c1)Cc1c[nH]c2ccccc12 (stereo unspecified)
